Measured values: US20260325443A1, “OLFACTORY DELIVERY OF THERAPEUTIC PSYCHEDELICS” (Rocket Science Health Corp., priority 2023, published 2026)
Several values for one entry are separate records, joined by “and”; a condition that tells them apart may be missing. Equal entries are not always repeated. Structures can show the parent of a compound that is named as a salt.

Key:
[1] = Visualizing olfactory cleft delivery with methylene blue (nasal endoscope imaging); format: in vivo, human; details: for Olfactory Residence Time: 0.1 mL, individual participants 2.01-2.05, at least 50% of fluid at olfactory cleft
Method: Participants: Five healthy participants (ages 19+) with no history of sinonasal symptoms and no evidence of nasal inflammation were recruited for this study. Prior to recruitment of participants study procedures were approved by Providence Health Care research ethics board, (British Columbia, Canada) and conducted under Health Canada Investigational Testing Authorization #314993. All participants were assessed by a licensed otolaryngologist physician to confirm their eligibility. Participants completed two study visits during which a licensed otolaryngologist physician administered 0.1 mL of the visual dye tracer, methylene blue.
Study Design: During the first visit, the methylene blue was administered using the Laminar Fluid Ejection method (1.5 mm cannula; velocity=4.5 m/s). During the second visit, methylene blue was administered using a conventional nasal spray device (Pharma systems Item #10272, UPC: 063636802714). The Pharma systems spray device was used in these experiments because it was the device normally used by the compounding pharmacy for intranasal delivery. It was the device patients and clinicians were used to at this clinic.
Following delivery, the physician used a nasal endoscope to image the deposition of methylene blue to the olfactory cleft at up to five time points (1, 5, 8, 12, and 15 minutes following delivery). From each image, the physician judged whether at least 50% of the methylene blue fluid was delivered to the olfactory cleft. If <50% of the methylene blue was judged to have deposited in the olfactory cleft, imaging was stopped and that session's trial was completed.

[2] = Plasma and tissue concentrations of ketamine via olfactory delivery compared to intravenous administration in rats (LC/MS/MS); format: in vivo, male Sprague Dawley rats; details: 5 mg/kg; for concentration at 5 min / concentration at 0.25 h / concentration at 0.5 h / concentration at 1 h / concentration at 1.5 h / concentration at 2 h / concentration at 200 min: rat, plasma; for concentration at 0.25 h: 15 min; for concentration at 0.5 h: 30 min; for concentration at 1 h: 60 min; for concentration at 1.5 h: 90 min; for concentration at 2 h: 120 min
Method: Drug Administration and Sample Collection: Intravenous (IV) administration was conducted by 100 μL tail vein injection. Olfactory delivery (OD) administration was conducted by a. 0.699 mm diameter cannula inserted into the right nostril with a minimal angle of 20-degrees to the target of the correct meatus.
Time course experiment and tissue concentration: 12 male Sprague Dawley rats (Age M+/−SD, Weight: 176.27-188.03 g) were administered Ketamine-HCl via IV or OD administration (resulting in two experimental groups, each with n=6). Ketamine-HCl was formulated according to the following procedures: For Ketamine-HCL 5 mg/kg OD: 24.64 mg Ketamine-HCL was added to 0.426 ml of saline, mixed well, and dissolved, with a solution concentration of 50 mg/ml. For Ketamine-HCL 5 mg/kg IV: 0.20 ml of 50 mg/ml Ketamine-HCL solution, was added to 0.60 ml of saline and mixed well to achieve a solution concentration of 12.5 mg/ml. Plasma time courses for 200 minutes were generated. Concentration of compound in brain, olfactory bulb, and plasma at t=200 minutes was quantified using LC/MS/MS.

[3] = Effect of administration routes (OD, IN, IV) on plasma, brain and olfactory bulb drug concentrations in rats (LCMS); details: 15 min after administration, 5.0 mg/kg
Method: The goal of this example was to compare nasal cannula delivery (OD) with the traditional IV and IN administration routes.
Procedure: The three routes of administration were tested on rats. A compound formulation of ketamine (5.0 mg/kg), naloxone (0.5 mg/kg), diazepam (2.0 mg/kg), and ondansetron (1.0 mg/kg) was administer. 15 minutes after the drug was administered, rats were sacrificed and samples were taken from plasma, the olfactory bulb, and the brain. To assess each route of administration's efficacy, drug concentrations in each tissue were quantified using liquid chromatography-mass spectrometry (LCMS).

SMILES: CN(C)c1ccc2nc3ccc(=[N+](C)C)cc-3sc2c1 [Methylene Blue]
- Olfactory Residence Time ([1]; LFE Method (1.5 mm cannula; velocity=4.5 m/s)): 8 min and 5 min and 0 min and 1 min and 15 min
- participants with successful delivery of >50% of the methylene blue to the olfactory cleft ([1]; Laminar Fluid Ejection method): Four of the five participants
- Olfactory Residence Time ([1]; conventional nasal spray): 0 min
- delivery of at least 50% of the dye to the olfactory cleft ([1]; conventional nasal spray, each of the five participants): failed to deliver at least 50% of the dye

SMILES: CNC1(c2ccccc2Cl)CCCCC1=O (centres unmarked) [ketamine]
- plasma concentration, OD vs IV [2]: higher plasma concentration of ketamine can be achieved with OD than IV
- delivery to brain tissue, targeted to olfactory cleft (OD) vs traditional intranasal [3]: improved delivery to brain tissue compared to traditional intranasal sprays

SMILES: CNC1(c2ccccc2Cl)CCCCC1=O (centres unmarked) [Ketamine-HCl]
- concentration at 5 min ([2]; IV): 1710 ng/mL
- concentration at 0.25 h ([2]; IV): 686 ng/mL
- concentration at 0.5 h ([2]; IV): 330 ng/mL
- concentration at 1 h ([2]; IV): 150 ng/mL
- concentration at 1.5 h ([2]; IV): 65.8 ng/mL
- concentration at 2 h ([2]; IV): 27.1 ng/mL
- concentration at 200 min ([2]; IV): 2.53 ng/mL
- concentration at 5 min ([2]; OD): 7600 ng/mL
- concentration at 0.25 h ([2]; OD): 7250 ng/mL
- concentration at 0.5 h ([2]; OD): 2630 ng/mL
- concentration at 1 h ([2]; OD): 383 ng/mL
- concentration at 1.5 h ([2]; OD): 149 ng/mL
- concentration at 2 h ([2]; OD): 63 ng/mL
- concentration at 200 min ([2]; OD): 5.3 ng/mL
